Assays:
Assay type in all cases: in vivo
[1] = peroral toxicity to mammals (rat); settings: in vivo, po, dose required to achieve mortality rate of 50 percent, read-out: A.O. RAT LD50
Method: (§1) Certain of these compositions were also evaluated to determine their peroral toxicity to mammals. The animal selected for this experiment was the rat. The test results obtained are expressed in terms of the number of milligrams of compositions per kilogram of weight of the animal required to achieve a mortality rate of 50 percent (LD50).

[2] = system: root-knot nematode, Meloidogyne incognita var. acrita; assay: Nematocide Test; parameters: key: 1: severe galling, equal to untreated plants; 2: moderate galling; 3: light galling; 4: very light galling; 5: no galling, perfect control; settings: 3.33 m.g. of test compound per jar; cucumber, approximately 3 weeks
Method: The test organism used was the infective migratory larvae of the root-knot nematode, Meloidogyne incognita var. acrita, reared in the greenhouse on roots of cucumber plants. Infected plants were removed from the culture, and the roots are chopped very finely. A small amount of this inoculum was added to a pint jar containing approximately 180 cc. of soil. The jars were capped and incubated for one week at room temperature. During this period eggs of the nematode were hatched, and the larval forms migrated into the soil.
Ten ml. of the test formulation were added to each of the two jars for each dosage tested. Following the addition of chemical, the jars were capped, and the contents thoroughly mixed on a ball mill for 5 minutes.
The test compounds were formulated by a standard procedure of solution in acetone addition of an emulsifier, and dilution with water. Primary screening tests were conducted at 3.33 m.g. of the test compound per jar.
The jars were left capped at room temperature for a period of 48 hours, and the contents then transferred to 3 inch pots. Subsequently, the pots were seeded to cucumber as an indicator crop and placed in the greenhouse where they were cared for in the normal fashion for approximately 3 weeks.
The cucumber plants were then taken from the pots, the soil removed from the roots, and the amount of galling visually rated.
In the test for activity against nematodes activity was rated as follows: […]

[3] = system: rat; assay: peroral toxicity to mammals (rat); settings: dose required to achieve mortality rate of 50 percent
Method: as §1

Molecule | LD50 [1] [mg/kg] | NEMATODES activity rating (galling) [2] | A.O. RAT LD50 [3] [mg/kg]
CSC(C)=NOC(=O)N(C)SSC(C)(C)C(=O)C(C)C [1-Methylthioacetaldehyde 0-[N-methyl-N-(2,4-dimethyl-3-oxo-2-pentanethiosulfenyl)carbamoyl]oxime] | 226 | 3 | –
CSC(C)=NOC(=O)N(C)SC(C)(C)C(=O)C(C)C [1-Methylthioacetaldehyde O-[N-methyl-N-(2,4-dimethyl-3-oxo-2-pentanesulfenyl)carbamoyl]oxime] | 134 | 1 | –
CN(SC(C)(C)C(=O)c1ccccc1)C(=O)ON=C1SC(C)(C)C(=O)N1C [2-[[O-[N-methyl-N-(2-benzoyl-2-propanesulfenyl)carbamoyl]oximino]]-3,5,5-trimethylthiazolidin-4-one] | – | 3 | –
CSC(C)(C)C=NOC(=O)N(C)SC(C)(C)C(=O)C(C)C [2-Methylthio-2-methylpropionaldehyde O-[N-methyl-N-(2,4-dimethyl-3-oxo-2-pentanesulfenyl)carbamoyl]oxmine] | – | 3 | –
CC(C)C(=O)C(C)(C)SN(C)C(=O)ON=C1SCOC1C (centres unmarked) [4-[[O-[N-methyl-N-(2,4-dimethyl-3-oxo-2-pentanesulfenyl)carbamoyl]oximino]]-5-methyl-1,3-oxathiolane] | 16 | – | –
CC(C)C(=O)C(C)(C)SN(C)C(=O)ON=C1SC(C)(C)C(=O)N1C [2-[O-[N-methyl-(2,4-dimethyl-3-oxo-2-pentanesulfenyl)carbamoyl]oximino]-3,5,5-trimethylthiazolidin-4-one] | 226 | – | –
CC(C)C(=O)C(C)(C)SN(C)C(=O)ON=CC(C)(C)[N+](=O)[O-] [2-Nitro-2-methylpropionaldehyde O-[N-methyl-N-(2,4-dimethyl-3-oxo-2-pentanesulfenyl)carbamoyl]oxime] | 12 | – | –
1-(2-Cyanoethylthio)acetaldehyde 0-[N-methyl-N-(2,4-dimethyl-3-oxo-2-pentanethiosulfenyl)carbamoyl]oxime | – | 5 | –
CSC(C)=NOC(=O)N(C)SSC(C)(C)C(=O)c1ccccc1 [1-Methylthioacetaldehyde O-[N-methyl-N-(2-benzoyl-2-propanethiosulfenyl)carbamoyl]oxime] | 226 | – | –
CC(C)C(=O)C(C)(C)SN(C)C(=O)ON=C(C#N)c1ccccc1 [α-Cyanobenzaldehyde 0-[N-methyl-N-(2,4-dimethyl-3-oxo-2-pentanesulfenyl)carbamoyl]oxime] | – | 3 | –
4-[[0-[N-Methyl-N-(2,4-dimethyl-3-oxo-2-pentanethiosulfenyl)carbamoyl]oximino]]-5-methyl-1,3-oxathiolane | – | 3 | 8
CC(C)C(=O)C(C)(C)SN(C)C(=O)Oc1cccc2c1OC(C)(C)C2 [7-[N-methyl-N-(2,4-dimethyl-3-oxo-2-pentanesulfenyl)carbamoyloxy]-2,2-dimethyl-2,3-dihydrobenzofuran] | 31 | – | –
CC(C)C(=O)C(C)(C)SN(C)C(=O)ON=C1CSCCS1 [2-[[O-[N-methyl-N-(2,4-dimethyl-3-oxo-2-pentanesulfenyl)carbamoyl]oximino]]-1,4-dithiane] | – | 3 | –
CC(=NOC(=O)N(C)SSC(C)(C)C(=O)C(C)C)SC(C)C [1-Isopropylthioacetaldehyde 0-[N-methyl-N-(2,4-dimethyl-3-oxo-2-pentanethiosulfenyl)carbamoyl]oxime] | 42 | 4 | –
CC(=NOC(=O)N(C)SC(C)(C)C(=O)C(C)C)SC(C)C [1Isopropylthioacetaldehyde O-[N-methyl-N-(2,4-dimethyl-3-oxo-2-pentanesulfenyl)carbamoyl]oxime] | 37 | 3 | –

Source: patent US4179514A, “Ketoalkanesulfenyl and ketoalkanethiosulfenyl carbamates” (priority 1978, dated 1979)
